Results as given in PubChem BioAssay AID2060886 (Molecular Pharmacology Branch, DTP, NCI, 2025).
Values belong to the compound of their own block, whether it stands above or below them.

Test system: 653999-131-R-J2-PDC complex spheroids, growth inhibition
Test: Anticancer human tumor 653999-131-R-J2-PDC patient-derived lung adenocarcinoma cell line growth inhibition [RAS]
Settings: for IC50: curve of first compound; for viability, T/C: stronger effect = lower value
Excerpt: RAS pathway inhibitors in Combinations in Complex Spheroids
A high-throughput screen of multi-cell type tumor spheroids was designed to identify active combinations of RAS pathway inhibitors and targeted small molecules. Complex spheroids include a stromal component modeled by human endothelial cells (HUVEC) and fibroblasts modeled by human mesenchymal stem cells (MSCs). The concentration ranges selected for each drug and investigational agent were based upon clinically achievable concentrations if the clinical Cmax of the agent was known.
Compounds. The drugs and investigational agents: abemaciclib (NSC768073), cobimetinib (NSC768068), divarasib (GDC6063, NSC841802), docetaxel (NSC628503), GDC-1971 (RLY-1971, NSC841576), gemcitabine (NSC613327), inavolisib (NSC800729), ipatasertib (NSC767898), KB-0742 (NSC834161), MRTX-1133 (NSC836407), osimertinib (NSC779217), RMC-4630 (NSC839698), RMC-6236 (NSC851965), RMC-6291 (NSC852671), Ro-3306 (NSC812927), sapanisertib (NSC764658), SN-38 (NSC673596), staurosporine (NSC755774), SY5609 (NSC837396), and tovorafenib (DAY101, NSC766906), were obtained from the National Cancer Institute (NCI) Developmental Therapeutics Program Chemical Repository. The FDA-approved anticancer drug set is available from the NCI Developmental Therapeutics Program. […] The stock solutions were prepared in dimethyl sulfoxide (DMSO, Sigma-Aldrich, St. Louis, MO, cat. D2650) at 800-fold the tested concentration and stored at -70 degrees C prior to their use. All drugs and investigational agents were tested over a range starting from a high concentration at or near the clinical Cmax and decreasing in half-log increments. If the clinical Cmax for an agent had not been determined, the highest concentration tested was 10 microM.
Cell Culture. All cells were maintained in an incubator at 37 degrees C and 5% CO2 with 95% humidity. The PDC lines were cultured according to standard operating procedures established by the NCI PDMR. All PDCs were thawed and cultured in Matrigel-coated flasks prepared with a working solution of 1X Ham's F-12 nutrient mix, without supplementation (Invitrogen, Waltham, MA, cat. 11765054), 100 U/mL penicillin-streptomycin (Invitrogen, cat. 15140122), and 2.5% Matrigel (Corning Inc., Corning, NY, cat. 354248) for the first three passages. The 362531-283-R-J2-PDC and 782815-120-R-J1-PDC lines were cultured in 6C/Colon 1B media, which includes advanced DMEM/F-12 (Thermo Fisher Scientific, cat. 12634028), 10 mM HEPES (Thermo Fisher Scientific, cat. 15630080), 1X GlutaMAX supplement (Thermo Fisher Scientific, cat. 35050061), 0.1 mg/mL primocin (InvivoGen, San Diego, CA, cat. ant-pm-2), 10% defined fetal bovine serum, heat inactivated (HyClone Laboratories Inc., Logan, UT, cat. SH30070.03HI), 50% L-WRN conditioned media (ATCC, cat. CRL-3276), 1.25 mM N-Acetyl-L-cysteine (Sigma-Aldrich, cat. A9165), 10 mM nicotinamide (Sigma-Aldrich, cat. N0636), 1X B-27 supplement (Thermo Fisher Scientific, cat. 17504044), 1X N-2 supplement (Thermo Fisher Scientific, cat. 17502048), 50 ng/mL human EGF (Thermo Fisher Scientific, cat. PHG0311), and 10 microM Y-27632 dihydrochloride (Tocris Bioscience, cat. 1254). The K12877-001-R-J1-PDC line was cultured in 6I media, which includes all 6C/Colon 1B media plus 10 ng/mL human FGF-10 (PeproTech, cat. 100-26), 1 ng/mL human FGF-2 (PeproTech, cat. 100-18B), 1 µM prostaglandin E2 (Tocris Bioscience, cat. 2296), […] hydrocortisone (Sigma-Aldrich, cat. H4001), and […] bovine insulin (Sigma-Aldrich, cat. I6634). The K86415-001-R-J1-PDC line was cultured in 6D media, which includes all 6C/Colon 1B media components minus the L-WRN conditioned media. The 485176-168-R4-J1-PDC was cultured in PANC media, which includes all 6C/Colon 1B media plus 100 ng/mL human FGF-10 (PeproTech, cat. 100-26), 500 nM SB-431542 (Selleckchem, cat. S1067), and 10 nM gastrin (Tocris Bioscience, cat. 3006). […]

[1] = second compound 0.0316 µM, first compound 0.0316 µM
[2] = second compound 0.0316 µM, first compound 0.1 µM
[3] = second compound 0.0316 µM, first compound 0.316 µM
[4] = second compound 0.0316 µM, first compound 1 µM
[5] = second compound 0.1 µM, first compound 0.0316 µM
[6] = second compound 0.1 µM, first compound 0.1 µM
[7] = second compound 0.1 µM, first compound 0.316 µM
[8] = second compound 0.1 µM, first compound 1 µM
[9] = second compound 0.316 µM, first compound 0.0316 µM
[10] = second compound 0.316 µM, first compound 0.1 µM
[11] = second compound 0.316 µM, first compound 0.316 µM
[12] = second compound 0.316 µM, first compound 1 µM
[13] = second compound 1 µM, first compound 0.0316 µM
[14] = second compound 1 µM, first compound 0.1 µM
[15] = second compound 1 µM, first compound 0.316 µM
[16] = second compound 1 µM, first compound 1 µM
[17] = second compound 3.16 µM, first compound 0.0316 µM
[18] = second compound 3.16 µM, first compound 0.1 µM
[19] = second compound 3.16 µM, first compound 0.316 µM
[20] = second compound 3.16 µM, first compound 1 µM
[21] = second compound 10 µM, first compound 0.0316 µM
[22] = second compound 10 µM, first compound 0.1 µM
[23] = second compound 10 µM, first compound 0.316 µM
[24] = second compound 10 µM, first compound 1 µM
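Note: spheroids exposed to the agents for seven days before the readout.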

IC50 (second compound 0.0316 µM): 4780 nM | IC50 (second compound 0.1 µM): 3960 nM | IC50 (second compound 0.316 µM): < 31.6 nM | IC50 (second compound 1 µM): < 31.6 nM | IC50 (second compound 3.16 µM): < 31.6 nM | IC50 (second compound 10 µM): < 31.6 nM
SMILES: CC1(O)CCCC1n1c(=O)c(C(F)F)cc2cnc(NC3CCN(S(C)(=O)=O)CC3)nc21 (centres undefined) + C#Cc1c(F)ccc2cc(O)cc(-c3ncc4c(N5CC6CCC(C5)N6)nc(OCC56CCCN5CC(F)C6)nc4c3F)c12
viability, T/C [1]: 71.3% | viability, T/C [2]: 54.8% | viability, T/C [3]: 62.4% | viability, T/C [4]: 57.2% | viability, T/C (second compound 0.0316 µM, first compound 3.16 µM): 63.1% | viability, T/C (second compound 0.0316 µM, first compound 10 µM): 29.6% | viability, T/C [5]: 69.4% | viability, T/C [6]: 49.9% | viability, T/C [7]: 51.2% | viability, T/C [8]: 52.1% | viability, T/C (second compound 0.1 µM, first compound 3.16 µM): 58.4% | viability, T/C (second compound 0.1 µM, first compound 10 µM): 24.7% | viability, T/C [9]: 49.4% | viability, T/C [10]: 42.7% | viability, T/C [11]: 42.6% | viability, T/C [12]: 45.5% | viability, T/C (second compound 0.316 µM, first compound 3.16 µM): 49.2% | viability, T/C (second compound 0.316 µM, first compound 10 µM): 27.7% | viability, T/C [13]: 40.5% | viability, T/C [14]: 31.4% | viability, T/C [15]: 32.7% | viability, T/C [16]: 34.3% | viability, T/C (second compound 1 µM, first compound 3.16 µM): 34.4% | viability, T/C (second compound 1 µM, first compound 10 µM): 24.5% | viability, T/C [17]: 29.6% | viability, T/C [18]: 25.5% | viability, T/C [19]: 21.6% | viability, T/C [20]: 23% | viability, T/C (second compound 3.16 µM, first compound 3.16 µM): 31.4% | viability, T/C (second compound 3.16 µM, first compound 10 µM): 20.7% | viability, T/C [21]: 23.2% | viability, T/C [22]: 17.1% | viability, T/C [23]: 20.6% | viability, T/C [24]: 19.7% | viability, T/C (second compound 10 µM, first compound 3.16 µM): 25.6% | viability, T/C (second compound 10 µM, first compound 10 µM): 22.7%

IC50 (second compound 0.0316 µM): > 1000 nM | IC50 (second compound 0.1 µM): > 1000 nM | IC50 (second compound 0.316 µM): 28.2 nM | IC50 (second compound 1 µM): < 3.16 nM | IC50 (second compound 3.16 µM): < 3.16 nM | IC50 (second compound 10 µM): < 3.16 nM
SMILES: CCN1CCN(Cc2ccc(Nc3ncc(F)c(-c4cc(F)c5nc(C)n(C(C)C)c5c4)n3)nc2)CC1 + C#Cc1c(F)ccc2cc(O)cc(-c3ncc4c(N5CC6CCC(C5)N6)nc(OCC56CCCN5CC(F)C6)nc4c3F)c12
viability, T/C (second compound 0.0316 µM, first compound 0.00316 µM): 74.8% | viability, T/C (second compound 0.0316 µM, first compound 0.01 µM): 88.1% | viability, T/C [1]: 65.6% | viability, T/C [2]: 57.4% | viability, T/C [3]: 62% | viability, T/C [4]: 63.2% | viability, T/C (second compound 0.1 µM, first compound 0.00316 µM): 70.5% | viability, T/C (second compound 0.1 µM, first compound 0.01 µM): 71.8% | viability, T/C [5]: 57.2% | viability, T/C [6]: 52.1% | viability, T/C [7]: 54.8% | viability, T/C [8]: 61% | viability, T/C (second compound 0.316 µM, first compound 0.00316 µM): 64.7% | viability, T/C (second compound 0.316 µM, first compound 0.01 µM): 62.8% | viability, T/C [9]: 43.8% | viability, T/C [10]: 49.3% | viability, T/C [11]: 50.8% | viability, T/C [12]: 50.5% | viability, T/C (second compound 1 µM, first compound 0.00316 µM): 37.7% | viability, T/C (second compound 1 µM, first compound 0.01 µM): 43.6% | viability, T/C [13]: 39.9% | viability, T/C [14]: 30.9% | viability, T/C [15]: 29.9% | viability, T/C [16]: 41.7% | viability, T/C (second compound 3.16 µM, first compound 0.00316 µM): 35.3% | viability, T/C (second compound 3.16 µM, first compound 0.01 µM): 31.7% | viability, T/C [17]: 34.4% | viability, T/C [18]: 26.6% | viability, T/C [19]: 33.3% | viability, T/C [20]: 33.3% | viability, T/C (second compound 10 µM, first compound 0.00316 µM): 18.4% | viability, T/C (second compound 10 µM, first compound 0.01 µM): 17.3% | viability, T/C [21]: 22.3% | viability, T/C [22]: 19.4% | viability, T/C [23]: 20.2% | viability, T/C [24]: 26.9%
